target: recombinant Mcl-1 (residues 172-327) (Homo sapiens (Human), UniProt Q07820); experiment: Bak peptide fluorescence polarization anisotropy competition assay, Mcl-1; format: binding; conditions: Table 2, Ki range; FITC-Bak peptide 10 nM, Mcl-1 14 nM; read-out: Ki for inhibition of Mcl-1
Sequence (Q07820 172-327): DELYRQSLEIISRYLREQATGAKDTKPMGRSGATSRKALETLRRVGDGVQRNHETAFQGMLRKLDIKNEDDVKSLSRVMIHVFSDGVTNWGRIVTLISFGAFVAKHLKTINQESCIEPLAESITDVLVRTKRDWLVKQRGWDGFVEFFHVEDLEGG

Compound | Ki [nM]
Cc1cc(OCCCc2c(C(=O)NS(=O)(=O)c3ccccc3)[nH]c3c(-c4ccnc5ccccc45)cccc23)cc(C)c1Cl [Example 92, 3-(3-(4-chloro-3,5-dimethylphenoxy)propyl)-N-(phenylsulfonyl)-7-(quinolin-4-yl)-1H-indole-2-carboxamide] | ≤ 100
Cc1cc(OCCCc2c(C(=O)NS(=O)(=O)CCNC(=O)C3CCCCC3)[nH]c3cc(Cl)ccc23)cc(C)c1Cl [Example 226, 6-chloro-3-(3-(4-chloro-3,5-dimethylphenoxy)propyl)-N-((2-(cyclohexanecarboxamido)ethyl)sulfonyl)-1H-indole-2-carboxamide] | ≤ 100
Cc1cc(OCCCc2c(C(=O)NS(C)(=O)=O)[nH]c3cccc(C)c23)cc(C)c1Cl [Example 116, 3-(3-(4-chloro-3,5-dimethylphenoxy)propyl)-4-methyl-N-(methylsulfonyl)-1H-indole-2-carboxamide] | ≤ 100
Cc1cc(OCCCc2c(C(=O)NS(=O)(=O)c3ccccc3)[nH]c3c(-c4ncccc4C(F)(F)F)cccc23)cc(C)c1Cl [Example 102, 3-(3-(4-chloro-3,5-dimethylphenoxy)propyl)-N-(phenylsulfonyl)-7-(3-(trifluoromethyl)pyridin-2-yl)-1H-indole-2-carboxamide] | ≤ 100

same assay, conditions: read-out: Ki for inhibition of Mcl-1

Compound | Ki [nM]
Cc1cc(OCCCc2c(C(=O)NS(C)(=O)=O)[nH]c3cc(Br)ccc23)cc(C)c1Cl [Example 112, 6-bromo-3-(3-(4-chloro-3,5-dimethylphenoxy)propyl)-N-(methylsulfonyl)-1H-indole-2-carboxamide] | 301 to 500
Cc1cc(OCCCc2c(C(=O)NS(=O)(=O)c3ccc(C(=O)N4CCOCC4)o3)[nH]c3cc(Cl)ccc23)cc(C)c1Cl [Example 262, 6-chloro-3-(3-(4-chloro-3,5-dimethylphenoxy)propyl)-N-((5-(morpholine-4-carbonyl)furan-2-yl)sulfonyl)-1H-indole-2-carboxamide] | 101 to 299
Cc1cc(OCCCc2c(C(=O)NS(=O)(=O)c3cccc4ccccc34)oc3ccccc23)cc(C)c1Cl [Example 28, 3-(3-(4-chloro-3,5-dimethylphenoxy)propyl)-N-(naphthalen-1-ylsulfonyl)benzofuran-2-carboxamide] | 1000 to 9990
Cc1cc(OCCCc2c(C(=O)NS(=O)(=O)c3ccccc3)[nH]c3c(-c4ccco4)cccc23)cc(C)c1Cl [Example 86, 3-(3-(4-chloro-3,5-dimethylphenoxy)propyl)-7-(furan-2-yl)-N-(phenylsulfonyl)-1H-indole-2-carboxamide] | 101 to 299
Cc1cc(OCCCc2c(C(=O)NS(=O)(=O)c3ccnc(Cl)c3)[nH]c3ccccc23)cc(C)c1Cl [Example 135, 3-(3-(4-chloro-3,5-dimethylphenoxy)propyl)-N-((2-chloropyridin-4-yl)sulfonyl)-1H-indole-2-carboxamide] | 301 to 500
Cc1cc(C(=O)NCCS(=O)(=O)NC(=O)c2[nH]c3ccccc3c2CCCOc2cc(C)c(Cl)c(C)c2)c(C)o1 [Example 159, 3-(3-(4-chloro-3,5-dimethylphenoxy)propyl)-N-((2-(2,5-dimethylfuran-3-carboxamido)ethyl)sulfonyl)-1H-indole-2-carboxamide] | 101 to 299
CS(=O)(=O)NC(=O)c1[nH]c2cccc(Cl)c2c1CCCOc1cccc2ccccc12 [Example 49, 4-chloro-N-(methylsulfonyl)-3-(3-(naphthalen-1-yloxy)propyl)-1H-indole-2-carboxamide] | 101 to 299
Cc1cc(OCCCc2c(C(=O)NS(=O)(=O)CCNC(=O)c3ccoc3)[nH]c3ccccc23)cc(C)c1Cl [Example 158, 3-(3-(4-chloro-3,5-dimethylphenoxy)propyl)-N-((2-(furan-3-carboxamido)ethyl)sulfonyl)-1H-indole-2-carboxamide] | 101 to 299
Cc1cc(OCCCc2c(C(=O)NS(=O)(=O)C3CCN(C(=O)c4cc(-c5ccccc5O)n[nH]4)CC3)[nH]c3cc(Cl)ccc23)cc(C)c1Cl [Example 214] | 301 to 500
Cc1cc(OCCCc2c(C(=O)NS(=O)(=O)CCNC(=O)c3cccc(Oc4ccccc4)c3)[nH]c3ccccc23)cc(C)c1Cl [Example 167, 3-(3-(4-chloro-3,5-dimethylphenoxy)propyl)-N-((2-(3-phenoxybenzamido)ethyl)sulfonyl)-1H-indole-2-carboxamide] | 101 to 299
COC(=O)c1ccc(S(=O)(=O)NC(=O)c2[nH]c3cc(Cl)ccc3c2CCCOc2cc(C)c(Cl)c(C)c2)n1C [Example 265, methyl 5-(N-(6-chloro-3-(3-(4-chloro-3,5-dimethylphenoxy)propyl)-1H-indole-2-carbonyl)sulfamoyl)-1-methyl-1H-pyrrole-2-carboxylate] | 101 to 299
Cc1cccc(OCCCc2c(C(=O)NS(C)(=O)=O)[nH]c3ccccc23)c1 [Example 31, N-(methylsulfonyl)-3-(3-(m-tolyloxy)propyl)-1H-indole-2-carboxamide] | 10000 to 50000
Cc1cc(OCCCc2c(C(=O)NS(=O)(=O)CCNC(=O)c3cccn3-c3ccccc3)[nH]c3ccccc23)cc(C)c1Cl [Example 172, 3-(3-(4-chloro-3,5-dimethylphenoxy)propyl)-N-((2-(1-phenyl-1H-pyrrole-2-carboxamido)ethyl)sulfonyl)-1H-indole-2-carboxamide] | 101 to 299
Cc1cc(OCCCc2c(C(=O)NS(=O)(=O)c3ccc(OCc4ccccc4)cc3)n(C)c3cc(Cl)ccc23)cc(C)c1Cl [Example 270, N-((4-(benzyloxy)phenyl)sulfonyl)-6-chloro-3-(3-(4-chloro-3,5-dimethylphenoxy)propyl)-1-methyl-1H-indole-2-carboxamide] | 301 to 500
Cc1ccccc1-c1cccc2c(CCCOc3cc(C)c(Cl)c(C)c3)c(C(=O)NS(C)(=O)=O)[nH]c12 [Example 84, 3-(3-(4-chloro-3,5-dimethylphenoxy)propyl)-N-(methylsulfonyl)-7-(o-tolyl)-1H-indole-2-carboxamide] | 101 to 299
Cc1cc(OCCCc2c(C(=O)NS(=O)(=O)CCNC(=O)c3cccc(Oc4ccccc4)c3)n(Cc3cccnc3)c3cc(Cl)ccc23)cc(C)c1Cl [Example 276, 6-chloro-3-(3-(4-chloro-3,5-dimethylphenoxy)propyl)-N-((2-(3-phenoxybenzamido)ethyl)sulfonyl)-1-(pyridin-3-ylmethyl)-1H-indole-2-carboxamide] | 301 to 500
Cc1cc(OCCCc2c(C(=O)NS(=O)(=O)c3ccccc3)[nH]c3c(-c4ccoc4)cccc23)cc(C)c1Cl [Example 87, 3-(3-(4-chloro-3,5-dimethylphenoxy)propyl)-7-(furan-3-yl)-N-(phenylsulfonyl)-1H-indole-2-carboxamide] | 101 to 299
COc1ccc(OCCCc2c(C(=O)NS(C)(=O)=O)[nH]c3cc(Cl)ccc23)cc1 [Example 109, 6-chloro-3-(3-(4-methoxyphenoxy)propyl)-N-(methylsulfonyl)-1H-indole-2-carboxamide] | 10000 to 50000
CS(=O)(=O)NC(=O)c1[nH]c2cccc(C(F)(F)F)c2c1CCCOc1cccc2ccccc12 [Example 81, N-(methylsulfonyl)-3-(3-(naphthalen-1-yloxy)propyl)-4-(trifluoromethyl)-1H-indole-2-carboxamide] | 301 to 500
Cc1cc(OCCCc2c(C(=O)NS(=O)(=O)c3ccccc3)[nH]c3c(-c4cnn(C)c4)ccc(Cl)c23)cc(C)c1Cl [Example 122, 4-chloro-3-(3-(4-chloro-3,5-dimethylphenoxy)propyl)-7-(1-methyl-1H-pyrazol-4-yl)-N-(phenylsulfonyl)-1H-indole-2-carboxamide] | 301 to 500
